Results on 14 compounds are retold here after patent publication US9637483B2, “Heterocyclic compound” (TAKEDA PHARMACEUTICAL COMPANY LIMITED, priority 2013, dated 2017).

Common to all, as to format: biochemical
One test deals with T1, JAK3 (Homo sapiens, UniProt P52333).
T1 construct: purchased Invitrogen
T1 sequence (P52333 1-1124): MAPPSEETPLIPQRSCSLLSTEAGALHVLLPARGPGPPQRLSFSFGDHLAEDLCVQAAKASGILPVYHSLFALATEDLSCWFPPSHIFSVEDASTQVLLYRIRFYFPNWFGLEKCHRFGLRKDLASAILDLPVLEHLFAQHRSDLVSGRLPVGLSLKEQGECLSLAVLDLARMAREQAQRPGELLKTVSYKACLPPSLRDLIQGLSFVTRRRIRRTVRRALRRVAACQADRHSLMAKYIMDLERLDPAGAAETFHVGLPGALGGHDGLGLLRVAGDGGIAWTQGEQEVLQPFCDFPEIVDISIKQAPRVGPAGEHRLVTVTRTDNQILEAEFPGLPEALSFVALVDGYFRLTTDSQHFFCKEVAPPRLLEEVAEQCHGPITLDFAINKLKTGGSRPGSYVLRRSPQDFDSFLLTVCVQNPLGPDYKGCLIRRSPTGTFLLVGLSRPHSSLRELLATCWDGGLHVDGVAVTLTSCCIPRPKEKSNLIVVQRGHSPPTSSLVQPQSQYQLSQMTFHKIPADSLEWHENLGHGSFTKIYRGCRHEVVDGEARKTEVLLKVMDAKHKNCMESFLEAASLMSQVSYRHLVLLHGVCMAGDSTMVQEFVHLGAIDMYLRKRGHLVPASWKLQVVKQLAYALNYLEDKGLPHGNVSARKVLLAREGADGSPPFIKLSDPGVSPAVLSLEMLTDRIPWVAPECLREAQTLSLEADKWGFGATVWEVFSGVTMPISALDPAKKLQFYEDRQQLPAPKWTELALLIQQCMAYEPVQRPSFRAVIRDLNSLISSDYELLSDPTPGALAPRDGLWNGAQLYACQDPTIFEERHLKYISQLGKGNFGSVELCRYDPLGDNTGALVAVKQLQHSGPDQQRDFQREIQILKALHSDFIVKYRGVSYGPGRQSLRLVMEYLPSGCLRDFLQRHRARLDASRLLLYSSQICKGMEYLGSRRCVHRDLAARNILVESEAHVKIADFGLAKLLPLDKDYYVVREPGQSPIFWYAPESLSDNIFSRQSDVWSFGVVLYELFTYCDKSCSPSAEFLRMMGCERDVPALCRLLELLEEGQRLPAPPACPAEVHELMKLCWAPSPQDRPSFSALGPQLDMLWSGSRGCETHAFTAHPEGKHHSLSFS
Kind of test: JAK3 enzyme inhibition test (LANCE method). The settings on record: 1 μM test compound; for inhibition at 1 µM: read-out: JAK3 enzyme inhibitory activity (%, 1 μM). Summed up:
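Recombinant JAK3 (12 ng/mL solution) with ULight-JAK1 peptide (300 nM solution) and ATP (15 μM solution) in HEPES pH 7.5 buffer, 1 h at room temperature. EDTA stop with Eu-anti-phosphotyrosine antibody; TR-FRET at 665 nm. Inhibition relative to enzyme-free wells as 100%.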
(In general: In TR-FRET formats the signal depends on donor and acceptor labels being close together.)

The next test concerns the target T2, JAK1 (Homo sapiens, UniProt P23458).
T2 construct: purchased Invitrogen
The test can be described thus: JAK1 enzyme inhibition test (LANCE method). The settings on record: 1 μM test compound; for inhibition at 1 µM: read-out: JAK1 enzyme inhibitory activity (%, 1 μM). Summed up:
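TR-FRET (LANCE) with ULight-JAK1 peptide (300 nM working solution) and ATP (150 μM working solution) in HEPES pH 7.5, MgCl2, EGTA, DTT buffer; 1 h at room temperature. EDTA stop plus Eu-anti-phosphotyrosine antibody, 665 nm read after 1 h. Inhibition relative to enzyme-free wells as 100%.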

In another test the target is T3, TYK2 (Homo sapiens, UniProt P29597).
T3 construct: purchased Invitrogen
Kind of test: TYK2 enzyme inhibition test (LANCE method). The note with it: 1 μM test compound; for inhibition at 1 µM: read-out: TYK2 enzyme inhibitory activity (%, 1 μM). Summed up:
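Recombinant TYK2 (375 ng/mL working solution) with ULight-JAK1 peptide (300 nM working solution) and ATP (30 μM working solution) in HEPES pH 7.5 buffer with MgCl2, EGTA, DTT, Tween20, BSA, reacted 1 h at RT. EDTA-stopped, Eu-anti-phosphotyrosine TR-FRET read at 665 nm; inhibition relative to enzyme-free wells as 100%.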

The next test has as its target T4, JAK2 (Homo sapiens, UniProt O60674).
T4 construct: purchased Invitrogen
Kind of test: JAK2 enzyme inhibition test (LANCE method). The note with it: 1 μM test compound; for inhibition at 1 µM: read-out: JAK2 enzyme inhibitory activity (%, 1 μM). Summed up: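 Recombinant JAK2 (6 ng/mL solution) phosphorylated ULight-JAK1 peptide (300 nM solution) with ATP (45 μM solution) in pH 7.5 HEPES/MgCl2/DTT buffer for 1 hr at room temperature. After EDTA stop and europium anti-phosphotyrosine antibody for 1 hr, TR-FRET read at 665 nm; inhibition relative to enzyme-free wells as 100%.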

T4 sequence (O60674 whole entry): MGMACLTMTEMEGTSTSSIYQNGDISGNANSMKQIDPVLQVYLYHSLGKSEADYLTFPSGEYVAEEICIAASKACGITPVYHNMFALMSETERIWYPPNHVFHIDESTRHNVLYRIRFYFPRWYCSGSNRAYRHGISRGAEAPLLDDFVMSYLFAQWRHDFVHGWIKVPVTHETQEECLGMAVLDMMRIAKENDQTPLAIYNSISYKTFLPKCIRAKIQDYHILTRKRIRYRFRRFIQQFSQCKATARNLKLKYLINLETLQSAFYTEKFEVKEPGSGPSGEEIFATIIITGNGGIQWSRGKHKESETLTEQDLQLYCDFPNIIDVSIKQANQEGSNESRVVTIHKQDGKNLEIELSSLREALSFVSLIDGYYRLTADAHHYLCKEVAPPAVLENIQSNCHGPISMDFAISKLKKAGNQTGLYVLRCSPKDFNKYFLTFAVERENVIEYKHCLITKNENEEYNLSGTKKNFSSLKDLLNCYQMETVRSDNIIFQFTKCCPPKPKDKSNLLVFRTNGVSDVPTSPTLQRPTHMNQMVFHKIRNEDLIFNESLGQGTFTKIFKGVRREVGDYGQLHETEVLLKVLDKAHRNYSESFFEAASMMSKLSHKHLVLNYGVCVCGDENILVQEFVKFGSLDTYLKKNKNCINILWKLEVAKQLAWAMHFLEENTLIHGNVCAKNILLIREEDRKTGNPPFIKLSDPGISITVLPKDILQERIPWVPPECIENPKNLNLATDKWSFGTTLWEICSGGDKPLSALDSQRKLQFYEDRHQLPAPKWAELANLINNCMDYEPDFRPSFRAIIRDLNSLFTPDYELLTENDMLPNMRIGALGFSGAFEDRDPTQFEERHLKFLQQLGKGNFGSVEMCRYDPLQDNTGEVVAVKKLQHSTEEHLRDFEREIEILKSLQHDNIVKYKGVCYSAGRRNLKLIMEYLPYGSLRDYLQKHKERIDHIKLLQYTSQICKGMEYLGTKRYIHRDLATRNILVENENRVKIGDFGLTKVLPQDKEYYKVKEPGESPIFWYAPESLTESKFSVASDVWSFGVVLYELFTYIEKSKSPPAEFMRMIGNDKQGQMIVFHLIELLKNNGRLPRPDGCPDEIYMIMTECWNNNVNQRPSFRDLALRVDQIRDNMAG
T2 sequence (P23458 whole entry): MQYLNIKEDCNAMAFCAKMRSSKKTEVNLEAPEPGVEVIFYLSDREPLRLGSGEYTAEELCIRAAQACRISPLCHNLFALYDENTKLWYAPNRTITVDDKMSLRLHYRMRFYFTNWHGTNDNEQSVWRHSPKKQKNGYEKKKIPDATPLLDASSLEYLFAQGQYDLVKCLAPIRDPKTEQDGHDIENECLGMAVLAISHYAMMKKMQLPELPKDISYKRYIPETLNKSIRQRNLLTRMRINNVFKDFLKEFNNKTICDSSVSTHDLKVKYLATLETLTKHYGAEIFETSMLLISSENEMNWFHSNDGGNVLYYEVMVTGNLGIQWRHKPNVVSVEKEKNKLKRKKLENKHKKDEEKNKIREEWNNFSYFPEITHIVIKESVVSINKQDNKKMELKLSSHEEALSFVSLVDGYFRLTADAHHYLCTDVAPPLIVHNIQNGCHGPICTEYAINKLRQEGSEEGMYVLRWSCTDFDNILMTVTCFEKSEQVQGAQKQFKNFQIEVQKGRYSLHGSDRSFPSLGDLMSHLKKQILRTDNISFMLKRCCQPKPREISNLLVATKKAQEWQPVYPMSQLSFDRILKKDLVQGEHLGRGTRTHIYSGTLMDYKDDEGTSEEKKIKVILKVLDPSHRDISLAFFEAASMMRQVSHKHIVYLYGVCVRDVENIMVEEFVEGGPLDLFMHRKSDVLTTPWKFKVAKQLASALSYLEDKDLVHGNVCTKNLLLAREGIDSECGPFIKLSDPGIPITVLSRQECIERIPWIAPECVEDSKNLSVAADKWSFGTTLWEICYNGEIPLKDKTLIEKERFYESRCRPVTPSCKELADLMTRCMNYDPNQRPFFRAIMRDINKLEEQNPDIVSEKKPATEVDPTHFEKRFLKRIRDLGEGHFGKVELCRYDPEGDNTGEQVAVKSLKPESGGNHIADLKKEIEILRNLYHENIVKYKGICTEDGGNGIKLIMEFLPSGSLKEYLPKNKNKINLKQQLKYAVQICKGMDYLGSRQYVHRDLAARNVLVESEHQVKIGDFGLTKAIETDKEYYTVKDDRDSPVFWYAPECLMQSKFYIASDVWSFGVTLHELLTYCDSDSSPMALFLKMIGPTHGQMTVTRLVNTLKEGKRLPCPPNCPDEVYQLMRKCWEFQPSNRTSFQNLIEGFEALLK
T3 sequence (P29597 whole entry): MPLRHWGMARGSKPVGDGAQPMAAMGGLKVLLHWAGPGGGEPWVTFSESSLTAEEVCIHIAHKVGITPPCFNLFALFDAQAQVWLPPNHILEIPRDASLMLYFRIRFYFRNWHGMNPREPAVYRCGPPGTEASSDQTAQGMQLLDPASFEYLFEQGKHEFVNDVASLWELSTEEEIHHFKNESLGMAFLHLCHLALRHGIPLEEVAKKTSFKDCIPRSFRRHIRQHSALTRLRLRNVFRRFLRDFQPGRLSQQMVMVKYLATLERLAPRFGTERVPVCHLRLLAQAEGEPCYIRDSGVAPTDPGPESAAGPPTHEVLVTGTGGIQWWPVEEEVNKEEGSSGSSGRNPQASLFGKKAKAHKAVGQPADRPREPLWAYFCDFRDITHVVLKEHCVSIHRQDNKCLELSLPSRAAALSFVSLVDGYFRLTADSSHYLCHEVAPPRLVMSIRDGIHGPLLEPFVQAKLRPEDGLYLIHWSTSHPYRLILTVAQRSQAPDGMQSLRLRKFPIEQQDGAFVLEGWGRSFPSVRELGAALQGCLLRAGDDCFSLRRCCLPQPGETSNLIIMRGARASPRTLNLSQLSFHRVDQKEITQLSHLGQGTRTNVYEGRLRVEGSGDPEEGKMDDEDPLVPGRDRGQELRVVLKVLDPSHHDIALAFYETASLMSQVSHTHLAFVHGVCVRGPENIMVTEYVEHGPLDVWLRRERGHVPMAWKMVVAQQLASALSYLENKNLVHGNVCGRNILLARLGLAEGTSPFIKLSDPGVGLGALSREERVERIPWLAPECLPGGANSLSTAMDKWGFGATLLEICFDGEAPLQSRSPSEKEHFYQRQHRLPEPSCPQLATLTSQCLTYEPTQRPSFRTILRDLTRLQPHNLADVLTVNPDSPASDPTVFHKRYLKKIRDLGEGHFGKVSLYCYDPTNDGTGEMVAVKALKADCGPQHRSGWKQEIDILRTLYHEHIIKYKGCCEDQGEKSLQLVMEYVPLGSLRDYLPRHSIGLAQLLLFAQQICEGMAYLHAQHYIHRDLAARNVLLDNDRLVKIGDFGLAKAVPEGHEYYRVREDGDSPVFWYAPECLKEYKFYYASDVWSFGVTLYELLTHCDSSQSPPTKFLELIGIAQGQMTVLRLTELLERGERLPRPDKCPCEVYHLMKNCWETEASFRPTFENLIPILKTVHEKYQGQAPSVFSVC

Regarding `CC1CCCCC1n1cc(-c2cc(C(C)(C)O)n(C)n2)c2[nH]nc(N)c2c1=O` (centres unmarked) [Example 119, 3-amino-7-(5-(2-hydroxypropan-2-yl)-1-methyl-1H-pyrazol-3-yl)-5-(2-methylcyclohexyl)-1,5-dihydro-4H-pyrazolo[4,3-c]pyridin-4-one], on JAK3 (1 µM), the “JAK3 enzyme inhibitory activity (%, 1 μM)” value was 100%. Moreover, the “JAK1 enzyme inhibitory activity (%, 1 μM)” value at JAK1 was found to be 99%. The “TYK2 enzyme inhibitory activity (%, 1 μM)” value at TYK2 (1 µM) is given as 100%. In addition, the “JAK2 enzyme inhibitory activity (%, 1 μM)” value on JAK2 (1 µM) was determined as 98%.

Regarding `CC1CCCCC1n1cc(-c2cc(N3CCOCC3)n(C)n2)c2[nH]nc(N)c2c1=O` (centres unmarked) [Example 152, 3-amino-5-(2-methylcyclohexyl)-7-(1-methyl-5-(morpholin-4-yl)-1H-pyrazol-3-yl)-1,5-dihydro-4H-pyrazolo[4,3-c]pyridin-4-one], the inhibition at 1 µM on JAK3 amounted to 101%; at TYK2, 102%; on JAK2, 101%. At JAK1, the “JAK1 enzyme inhibitory activity (%, 1 μM)” value stood at 100%.

Regarding `CC(C)[C@H](C)n1cc(-c2cc(N(C)C3CCCC3)n(C)n2)c2[nH]nc(N)c2c1=O` [Example 134, 3-amino-7-(5-(cyclopentyl(methyl)amino)-1-methyl-1H-pyrazol-3-yl)-5-((2S)-3-methylbutan-2-yl)-1,5-dihydro-4H-pyrazolo[4,3-c]pyridin-4-one], the inhibition at 1 µM stood at 99% on JAK3, 97% on JAK1, 99% on TYK2 and 98% on JAK2.

For the compound `COC1(c2cc(-c3cn(-c4c(F)cccc4F)c(=O)c4c(N)n[nH]c34)nn2C)CN(S(=O)(=O)C(C)C)C1` [Example 144, 3-amino-5-(2,6-difluorophenyl)-7-(5-(1-(isopropylsulfonyl)-3-methoxyazetidin-3-yl)-1-methyl-1H-pyrazol-3-yl)-1,5-dihydro-4H-pyrazolo[4,3-c]pyridin-4-one], the inhibition at 1 µM on JAK3 turned out to be 99%; on JAK1 it was 92%; on TYK2, 100%; at JAK2, 98%.

Consider `COCCN(C)C(=O)c1cc(-c2cn([C@@H](C)C(C)C)c(=O)c3c(N)n[nH]c23)nn1C` [Example 46, 3-(3-amino-5-((2S)-3-methylbutan-2-yl)-4-oxo-4,5-dihydro-1H-pyrazolo[4,3-c]pyridin-7-yl)-N-(2-methoxyethyl)-N,1-dimethyl-1H-pyrazole-5-carboxamide], for which the inhibition at 1 µM on JAK3 stood at 99%; at JAK1, 95%; on TYK2, 99%; on JAK2, 98%.

Take `CC(C)[C@H](C)n1cc(-c2cc(N3CC[C@@H](O)C3)n(C)n2)c2[nH]nc(N)c2c1=O` [Example 21, 3-amino-7-(5-((3R)-3-hydroxypyrrolidin-1-yl)-1-methyl-1H-pyrazol-3-yl)-5-((2S)-3-methylbutan-2-yl)-1,5-dihydro-4H-pyrazolo[4,3-c]pyridin-4-one]: the inhibition at 1 µM on JAK3 was found to be 99%; on JAK1 it was 97%; at TYK2 it was 99%; on JAK2, 98%.

Turning to `CC(C)[C@@H](C)n1cc(-c2cc(C(C)(C)O)n(C)n2)c2[nH]nc(N)c2c1=O` [Example 100, 3-amino-7-(5-(2-hydroxypropan-2-yl)-1-methyl-1H-pyrazol-3-yl)-5-((2R)-3-methylbutan-2-yl)-1,5-dihydro-4H-pyrazolo[4,3-c]pyridin-4-one], the inhibition at 1 µM at JAK3 was 86%; on JAK1, 82%; at TYK2 it was 96%; on JAK2 it was 65%.

With `CC(C)N1CCN(c2cc(-c3cn([C@@H](C)C4CC4)c(=O)c4c(N)n[nH]c34)nn2C)CC1=O` [Example 92, 3-amino-5-((1S)-1-cyclopropylethyl)-7-(5-(4-isopropyl-3-oxopiperazin-1-yl)-1-methyl-1H-pyrazol-3-yl)-1,5-dihydro-4H-pyrazolo[4,3-c]pyridin-4-one], the inhibition at 1 µM was determined as 99% at JAK3, 100% on JAK1, 99% on TYK2 and 100% on JAK2.

With `CC(C)[C@H](C)n1cc(-c2cc(C(C)(C)CO)n(C)n2)c2[nH]nc(N)c2c1=O` [Example 3, 3-amino-7-(5-(1-hydroxy-2-methylpropan-2-yl)-1-methyl-1H-pyrazol-3-yl)-5-((2S)-3-methylbutan-2-yl)-1,5-dihydro-4H-pyrazolo[4,3-c]pyridin-4-one], the inhibition at 1 µM was 100% on JAK3, 98% at JAK1, 100% on TYK2 and 99% at JAK2.

On to `CC1CCCCC1n1cc(-c2cc(C(C)(C)O)n(C)n2)c2[nH]nc(N)c2c1=O` (centres unmarked) [Example 117, 3-amino-7-(5-(2-hydroxypropan-2-yl)-1-methyl-1H-pyrazol-3-yl)-5-(2-methylcyclohexyl)-1,5-dihydro-4H-pyrazolo[4,3-c]pyridin-4-one], for which the inhibition at 1 µM at JAK3 is 97%; on JAK1 it was 85%; at TYK2, 99%; on JAK2 it was 85%.

As to `CC(C)[C@H](C)n1cc(-c2cc(N3CCN(S(=O)(=O)C4CC4)CC3)n(C)n2)c2[nH]nc(N)c2c1=O` [Example 107, 3-amino-7-(5-(4-(cyclopropylsulfonyl)piperazin-1-yl)-1-methyl-1H-pyrazol-3-yl)-5-((2S)-3-methylbutan-2-yl)-1,5-dihydro-4H-pyrazolo[4,3-c]pyridin-4-one], the inhibition at 1 µM at JAK3 is 99%; at JAK1, 97%; at TYK2, 100%; on JAK2 it was 98%.

As for `CC(C)[C@H](C)n1cc(-c2cc(CN3CCCC3)n(C)n2)c2[nH]nc(N)c2c1=O` [Example 44, 3-amino-5-((2S)-3-methylbutan-2-yl)-7-(1-methyl-5-(pyrrolidin-1-ylmethyl)-1H-pyrazol-3-yl)-1,5-dihydro-4H-pyrazolo[4,3-c]pyridin-4-one], the inhibition at 1 µM on JAK3 stood at 99%; at JAK1, 90%; on TYK2, 101%; at JAK2 it was 96%.

For `CNC(=O)c1cc(-c2cn(-c3c(F)cccc3F)c(=O)c3c(N)n[nH]c23)nn1C` [Example 65, 3-(3-amino-5-(2,6-difluorophenyl)-4-oxo-4,5-dihydro-1H-pyrazolo[4,3-c]pyridin-7-yl)-N,1-dimethyl-1H-pyrazole-5-carboxamide], the inhibition at 1 µM at JAK3 was 100%; at JAK1, 99%; on TYK2 it was 100%; on JAK2, 98%.

`CO[C@H]1CCN(c2cc(-c3cn(C(C4CC4)C4CC4)c(=O)c4c(N)n[nH]c34)nn2C)C1` [Example 167, 3-amino-5-(dicyclopropylmethyl)-7-(5-((3S)-3-methoxypyrrolidin-1-yl)-1-methyl-1H-pyrazol-3-yl)-1,5-dihydro-4H-pyrazolo[4,3-c]pyridin-4-one]: the inhibition at 1 µM at JAK3 stood at 100%; at JAK1, 100%; at TYK2, 101%; at JAK2 it was 99%.
